Results published in US6930093B2, “Use of ribofuranose derivatives against inflammatory bowel diseases” (Valeant Research & Development, priority 2003, dated 2005).
“And” between values parts separate entries of the source, which are not always exact repeats. Identical values can stand only once.

Test system: DNBS induced distal colitis in Wistar rats
Experiment: DNBS (2,4 dinitrobenzenesulfonic acid) induced distal colitis in Wistar rats as a model for inflammatory bowel disease
Format: in vivo, Wistar derived female rats
Details: for I: Table 3; for I / Colon weight per 100 g B.W.: ribavirin 100 mg/kg × 7 or sulfasalazine 300 mg/kg × 7 p.o.; for Colon weight per 100 g B.W.: sacrifice 24 hours after final dosing
Method: Wistar derived female rats were provided by MDS Pharma Services Taiwan Ltd. and housed in APEC^R cages. All animals were maintained in a controlled temperature (22° C.-24° C.) and humidity (60-80%) environment with 12 hours light dark cycles for at least one week in the laboratory prior to use. Free access to standard lab chow (LabDiet, Rodent Diet, PMI Nutrition International, USA) and tap water was granted. All aspects of the work including housing, experimentation and disposal of animals were performed in general accordance with the International Guiding Principles for Biomedical Research Involving Animals (CIOMSI Publication No. ISBN 9290360194, 1985).
[…] (TCI, Japan), absolute ethanol (Merck, Germany), sodium chloride (Wako, Japan), sulfasalazine (Sigma, USA) and Tween 80 (Wako, Japan).
Groups of 3 Wistar derived female rats weighing 180±20 grams and fasted for 24 hours were used. Distal colitis was induced by intra-colonic instillation of 2,4-ninitrobenzene sulfonic acid (DNBS; 30 mg in 0.5 mL ethanol 30%), which was followed by injection of air (2 mL) through a cannula to ensure that the solution remained in the colon. […] Two control groups were similarly treated with vehicle alone while challenged with either DNBS (vehicle-control) or 0.9% NaCl solution (blank-control). The animals were sacrificed 24 hours after the final dosing of test compound and each colon was removed and weighed. During the experiment, the presence of diarrhea was recorded daily. Furthermore, when the abdominal cavity was opened, adhesions between the colon and other organs were first noted; presence of colonic ulceration was evaluated after removal and weighing of each colon. The colon-to-body weight (BW) ratio was then calculated for each animal according to the formula: Colon [(g)/BW(g)]×100%. The “Net” increase in the ratio of vehicle-control+DNBS group relative to vehicle-control group was used as a base for comparison with test substance treated groups and expressed as percent decrease. A 30% or more (≧30%) reduction in colon-to-body weight ratio, relative to the vehicle-treated control group, is considered significant.

Row | Compound | I (group Avg of 3 rats) | I (individual animals (N 1-3)) | Colon weight per 100 g B.W. (individual animals (N 1-3)) | effectiveness in this IBD model (ribavirin 100 mg/kg p.o., 24 and 2 hours before DNBS and then daily for 5 days) | Colon weight per 100 g B.W. (group Avg of 3 rats)
1 | NC(=O)c1ncn([C@@H]2O[C@H](CO)[C@@H](O)[C@H]2O)n1 [Ribavirin, 1-β-D-ribofuranosyl-1H-1,2,4-triazole-3-carboxamide] | 0.733 | 0.780 and 0.619 and 0.800 | 0.96 and 1.24 | effective | 
2 | O=C(O)c1cc(/N=N/c2ccc(S(=O)(=O)Nc3ccccn3)cc2)ccc1O [Sulfasalazine, sulfasalazine] | 0.625 | 0.631 and 0.548 and 0.697 | 1.01 and 0.85 and 1.08 |  | 0.98
